The target in one assay is Vasopressin V2 receptor (Rattus norvegicus, UniProt Q00788). The assay is described as follows: Vasopressin V2 receptor antagonistic activity in vivo in anesthetized rats. It is filed as functional, organism-based. The following applies: for Kb: read-out: pA2 (converted).
The target in another assay is Vasopressin V1 receptor (Rattus norvegicus, UniProt P48974+P30560). The experiment in a line: pA2 value was determined for Vasopressin V1 receptor antagonistic activity in vivo in anesthetized rats. It is filed as functional, organism-based.
For another assay, the system named is Rattus norvegicus. The experiment in a line: pA2 value was determined for antidiuretic V2 antagonistic activity in vivo in anesthetized rats pA2 value was determined for antidiuretic V2 antagonistic activity in vivo in anesthetized rats. The assay is classed as functional, organism-based. As to conditions: Urine, read-out: pA2 (converted).
Assay [1] concerns the target Vasopressin V1 receptor (Rattus norvegicus) (UniProt P48974+P30560). The assay is described as follows: Effective dose was determined for Vasopressin V1 receptor antagonistic activity in vivo in anesthetized rats. The assay is classed as functional, organism-based.
For assay [2], the target named is Vasopressin V2 receptor (Rattus norvegicus) (UniProt Q00788). The experiment in a line: Selectivity ratio of antidiuretic Vasopressin V2 receptor ED /[…] receptor ED. As to conditions: Urine.
Chain of Vasopressin V2 receptor (Rattus norvegicus) (Q00788 whole entry): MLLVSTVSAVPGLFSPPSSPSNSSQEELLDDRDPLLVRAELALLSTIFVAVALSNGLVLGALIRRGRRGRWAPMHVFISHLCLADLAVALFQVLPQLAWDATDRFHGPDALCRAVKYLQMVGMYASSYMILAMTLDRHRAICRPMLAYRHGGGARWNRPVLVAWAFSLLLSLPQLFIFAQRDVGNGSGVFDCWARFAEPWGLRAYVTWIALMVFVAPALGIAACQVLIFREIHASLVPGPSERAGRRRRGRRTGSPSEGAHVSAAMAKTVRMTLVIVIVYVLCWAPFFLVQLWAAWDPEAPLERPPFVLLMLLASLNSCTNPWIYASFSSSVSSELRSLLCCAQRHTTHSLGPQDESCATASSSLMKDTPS
The target is the same in assay [3]. The assay is described as follows: Effective dose was determined for Vasopressin V2 receptor antagonistic activity in vivo in anesthetized rats. The assay is classed as functional, organism-based.

Each structure is given as a SMILES string.

Chain of Vasopressin V2 receptor (Q00788 whole entry): as above
Chain of Vasopressin V1 receptor (Rattus norvegicus) (P30560 whole entry, looked up): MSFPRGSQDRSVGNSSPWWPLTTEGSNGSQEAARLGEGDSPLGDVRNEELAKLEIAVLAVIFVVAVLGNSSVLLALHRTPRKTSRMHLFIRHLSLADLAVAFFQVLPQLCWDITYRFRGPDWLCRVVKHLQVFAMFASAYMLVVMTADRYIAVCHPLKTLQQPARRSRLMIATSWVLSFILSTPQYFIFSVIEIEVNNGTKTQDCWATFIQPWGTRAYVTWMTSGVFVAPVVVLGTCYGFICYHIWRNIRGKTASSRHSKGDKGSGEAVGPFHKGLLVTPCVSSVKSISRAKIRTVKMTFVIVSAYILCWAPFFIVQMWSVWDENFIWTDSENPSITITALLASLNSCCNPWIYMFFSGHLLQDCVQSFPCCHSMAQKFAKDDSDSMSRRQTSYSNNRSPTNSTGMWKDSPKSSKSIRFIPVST
Chain of Vasopressin V1 receptor (Rattus norvegicus) (P48974 whole entry, looked up): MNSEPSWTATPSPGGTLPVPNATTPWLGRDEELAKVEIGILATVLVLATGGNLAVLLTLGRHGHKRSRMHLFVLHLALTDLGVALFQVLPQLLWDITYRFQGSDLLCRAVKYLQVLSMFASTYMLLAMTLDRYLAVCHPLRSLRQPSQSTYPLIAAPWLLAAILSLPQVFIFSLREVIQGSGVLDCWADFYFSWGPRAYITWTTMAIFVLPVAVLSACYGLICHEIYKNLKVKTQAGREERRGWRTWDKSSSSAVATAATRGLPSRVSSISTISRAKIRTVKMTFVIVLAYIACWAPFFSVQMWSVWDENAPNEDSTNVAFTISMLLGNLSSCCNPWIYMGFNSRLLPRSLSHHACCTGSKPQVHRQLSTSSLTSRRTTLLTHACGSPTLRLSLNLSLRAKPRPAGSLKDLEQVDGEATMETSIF

As for `CC(C)[C@H](NC(=O)[C@H](Cc1ccccc1)NC(=O)[C@@H](Cc1ccc(O)cc1)NC(=O)CC12CC3CC(CC(C3)C1)C2)C(=O)N[C@@H](CC(N)=O)C(=O)N[C@@H](CCCN=C(N)N)C(=O)N1CCC[C@H]1C(=O)N[C@@H](CCCN=C(N)N)C(=O)N[C@@H](CCCN=C(N)N)C(N)=O`, the Kb on Vasopressin V2 receptor is 21.9 nM. For the same molecule, the pA2 at Vasopressin V1 receptor is 8.22.

Consider `CCOc1ccc(C[C@@H](NC(=O)Cc2ccccc2)C(=O)N[C@@H](Cc2ccccc2)C(=O)N[C@@H](CCC(N)=O)C(=O)N[C@@H](CC(N)=O)C(=O)N[C@@H](CCCCN)C(=O)N2CCC[C@H]2C(=O)N[C@@H](CCCN=C(N)N)C(N)=O)cc1`, for which the Kb in the assay on Rattus norvegicus was 501 nM. The pA2 at Vasopressin V1 receptor was determined as 9.05.

With `CCOc1ccc(C[C@@H](NC(=O)CC23C[C@H]4C[C@@H](C2)C[C@@H](C3)C4)C(=O)N[C@@H](Cc2ccccc2)C(=O)N[C@H](C(=O)N[C@@H](CC(N)=O)C(=O)N[C@@H](CC)C(=O)N2CCC[C@H]2C(=O)N[C@@H](CCCN=C(N)N)C(N)=O)C(C)C)cc1`, the results for the pA2 on Vasopressin V2 receptor and at Vasopressin V1 receptor were 7.21 and 7.43, respectively.

As to `CCOc1ccc(C[C@@H](NC(=O)CC23CC4CC(CC(C4)C2)C3)C(=O)N[C@@H](Cc2ccccc2)C(=O)N[C@H](C(=O)N[C@@H](CC(N)=O)C(=O)N[C@@H](CCCCN)C(=O)N2CCC[C@H]2C(=O)N[C@@H](CCCN=C(N)N)C(=O)N[C@@H](CCCN=C(N)N)C(N)=O)C(C)C)cc1`, the Kb at Vasopressin V2 receptor is 20 nM. For the same molecule, the pA2 on Vasopressin V1 receptor is recorded as 8.14.

Take `CCOc1ccc(C[C@@H](NC(=O)CC(C)(C)C)C(=O)N[C@@H](Cc2ccccc2)C(=O)N[C@H](C(=O)N[C@@H](CC(N)=O)C(=O)N[C@@H](CCCN=C(N)N)C(=O)N(C)[C@@H](C)C(=O)N[C@@H](CCCN=C(N)N)C(N)=O)C(C)C)cc1`: the figures for the Effective dose in assay [1] and in assay [3] were 0.3 nM/kg and 16 nM/kg, respectively. The Ratio in assay [2] worked out at 53. Further, the Kb at Vasopressin V2 receptor is 251 nM. This molecule also yielded a pA2 on Vasopressin V1 receptor of 8.34.

On to `CCOc1ccc(C[C@@H](NC(=O)CC23CC4CC(CC(C4)C2)C3)C(=O)N[C@@H](Cc2ccccc2)C(=O)N[C@H](C(=O)N[C@@H](CC(N)=O)C(=O)N[C@@H](CCCN)C(=O)N2CCC[C@H]2C(=O)N[C@@H](CCCN=C(N)N)C(N)=O)C(C)C)cc1`, for which, in the assay with Rattus norvegicus, the Kb is 15.5 nM. Also, at Vasopressin V1 receptor, the pA2 is on record as 7.33.

Take `CCOc1ccc(C[C@@H](NC(=O)Cc2ccccc2)C(=O)N[C@@H](Cc2ccccc2)C(=O)N[C@H](C(=O)N[C@@H](CC(N)=O)C(=O)N[C@@H](CCCCN)C(=O)N2CCC[C@H]2C(=O)N[C@@H](CCCN=C(N)N)C(N)=O)C(C)C)cc1`: the Kb on Vasopressin V2 receptor is 43.7 nM. The molecule further showed a pA2 on Vasopressin V1 receptor of 8.81.

`CCOc1ccc(C[C@@H](NC(=O)CC23CC4CC(CC(C4)C2)C3)C(=O)N[C@@H](Cc2ccccc2)C(=O)N[C@H](C(=O)N[C@@H](CC(N)=O)C(=O)N[C@@H](CCCN=C(N)N)C(=O)N2CCC[C@H]2C(=O)N[C@@H](CCCN=C(N)N)C(N)=O)C(C)C)cc1`: the Kb in the assay on Rattus norvegicus is 18.6 nM. Besides, the pA2 at Vasopressin V1 receptor worked out at 8.01.

Regarding `COc1ccc(C[C@@H](NC(=O)Cc2ccccc2)C(=O)N[C@@H](Cc2ccccc2)C(=O)N[C@@H](CCC(N)=O)C(=O)N[C@@H](CC(N)=O)C(=O)N[C@@H](CCCCN)C(=O)N2CCC[C@H]2C(=O)N[C@@H](CCCN=C(N)N)C(N)=O)cc1`, in the assay with Rattus norvegicus, the Kb is greater than 316 nM. The molecule further registered a pA2 on Vasopressin V1 receptor of 8.93.

Consider `COc1ccc(C[C@@H](NC(=O)Cc2ccccc2)C(=O)N[C@@H](Cc2ccccc2)C(=O)N[C@H](C(=O)N[C@@H](CC(N)=O)C(=O)N[C@@H](CCCCN)C(=O)N2CCC[C@H]2C(=O)N[C@@H](CCCN=C(N)N)C(N)=O)C(C)C)cc1`, for which the Kb on Vasopressin V2 receptor is 100 nM. The molecule also displayed a pA2 on Vasopressin V1 receptor of 8.61.

As to `CCOc1ccc(C[C@@H](NC(=O)Cc2ccccc2)C(=O)N[C@@H](Cc2ccccc2)C(=O)N[C@H](C(=O)N[C@@H](CC(N)=O)C(=O)N[C@@H](CCCCN)C(=O)N2CCC[C@H]2C(=O)N[C@@H](CCCN=C(N)N)C(=O)N[C@@H](CCCN=C(N)N)C(N)=O)C(C)C)cc1`, the Kb in the assay on Rattus norvegicus is roughly 141 nM. Further, at Vasopressin V1 receptor, the pA2 stood at 8.47.

`CCOc1ccc(C[C@@H](NC(=O)CC23CC4CC(CC(C4)C2)C3)C(=O)N[C@@H](Cc2ccccc2)C(=O)N[C@H](C(=O)N[C@@H](CC(N)=O)C(=O)N[C@@H](CCCN)C(=O)N2CCC[C@H]2C(=O)N[C@@H](CCCN=C(N)N)C(=O)N[C@@H](CCCN=C(N)N)C(N)=O)C(C)C)cc1`: the Kb in the assay with Rattus norvegicus was roughly 12.6 nM. The molecule further had a pA2 on Vasopressin V1 receptor of 7.64.

For the molecule `CCOc1ccc(C[C@@H](NC(=O)CC23CC4CC(CC(C4)C2)C3)C(=O)N[C@@H](Cc2ccccc2)C(=O)N[C@H](C(=O)N[C@@H](CC(N)=O)C(=O)N[C@@H](CCCN=C(N)N)C(=O)N2CCC[C@H]2C(=O)N[C@@H](CCCN=C(N)N)C(=O)N[C@@H](CCCN=C(N)N)C(N)=O)C(C)C)cc1`, the Kb with Rattus norvegicus was 10.5 nM. Further, the pA2 at Vasopressin V1 receptor turned out to be 8.13.

With `CCOc1ccc(C[C@@H](NC(=O)CC(C)(C)C)C(=O)N[C@@H](Cc2ccccc2)C(=O)N[C@@H](CCC(N)=O)C(=O)N[C@@H](CC(N)=O)C(=O)N[C@@H](CCCCN)C(=O)N2CCC[C@H]2C(=O)N[C@@H](CCCN=C(N)N)C(N)=O)cc1`, on Vasopressin V2 receptor, the Kb was 6310 nM. This molecule had a pA2 on Vasopressin V1 receptor of 8.4.

In the case of `CCOc1ccc(C[C@@H](NC(=O)CC23CC4CC(CC(C4)C2)C3)C(=O)N[C@@H](Cc2ccccc2)C(=O)N[C@H](C(=O)N[C@@H](CC(N)=O)C(=O)N[C@@H](CCCN=C(N)N)C(=O)N(C)[C@@H](C)C(=O)N[C@@H](CCCN=C(N)N)C(N)=O)C(C)C)cc1`, the Effective dose in assay [1] was 0.37 nM/kg; in assay [3], 1.2 nM/kg. Also, the Ratio in assay [2] stood at 3.2. In addition, in the assay with Rattus norvegicus, the Kb was 17 nM. The molecule also showed a pA2 on Vasopressin V1 receptor of 8.28.

For `CCOc1ccc(C[C@@H](NC(=O)CC(C)(C)C)C(=O)N[C@@H](Cc2ccccc2)C(=O)N[C@H](C(=O)N[C@@H](CC(N)=O)C(=O)NCCCC(=O)N2CCC[C@H]2C(=O)N[C@@H](CCCN=C(N)N)C(=O)N[C@@H](CCCN=C(N)N)C(N)=O)C(C)C)cc1`, the Kb on Vasopressin V2 receptor was 12.3 nM. The molecule also had a pA2 on Vasopressin V1 receptor of 7.99.

`CCOc1ccc(C[C@H]2NC(=O)CC3(CCCCC3)SSC[C@@H](C(=O)N3CCC[C@H]3C(=O)N[C@@H](CCCN=C(N)N)C(N)=O)NC(=O)[C@H](CC(N)=O)NC(=O)[C@H](C(C)C)NC(=O)[C@H](Cc3ccccc3)NC2=O)cc1`: the Kb with Rattus norvegicus was 20.4 nM. The molecule further had a pA2 on Vasopressin V1 receptor of 8.17.

On to `CCOc1ccc(C[C@@H](NC(=O)CC(C)(C)C)C(=O)N[C@@H](Cc2ccccc2)C(=O)N[C@H](C(=O)N[C@@H](CC(N)=O)C(=O)N[C@@H](CCCCN)C(=O)N2CCC[C@H]2C(=O)N[C@@H](CCCN=C(N)N)C(N)=O)C(C)C)cc1`, for which the Kb in the assay on Rattus norvegicus is 100 nM. Also, on Vasopressin V1 receptor, the pA2 was found to be 8.63.

For `CCOc1ccc(C[C@@H](NC(=O)CC23C[C@H]4C[C@@H](C2)C[C@@H](C3)C4)C(=O)N[C@@H](Cc2ccccc2)C(=O)N[C@H](C(=O)N[C@@H](CC(N)=O)C(=O)NCCCC(=O)N2CCC[C@H]2C(=O)N[C@@H](CCCN=C(N)N)C(=O)N[C@@H](CCCN=C(N)N)C(N)=O)C(C)C)cc1`, on Vasopressin V2 receptor, the Kb is 7.76 nM. Moreover, on Vasopressin V1 receptor, the pA2 is recorded as 7.75.

Regarding `CCOc1ccc(C[C@@H](NC(=O)Cc2ccccc2)C(=O)N[C@@H](Cc2ccccc2)C(=O)N[C@H](C(=O)N[C@@H](CC(N)=O)C(=O)NCCCC(=O)N2CCC[C@H]2C(=O)N[C@@H](CCCN=C(N)N)C(=O)N[C@@H](CCCN=C(N)N)C(N)=O)C(C)C)cc1`, at Vasopressin V2 receptor, the Kb was 10.2 nM. In addition, the pA2 at Vasopressin V1 receptor is on record as 8.42.

One may read the pA2 as a measure of antagonist potency on a negative log scale. A higher pA2 goes with higher antagonist potency.
